For series [1], the target named is uracil DNA-glycosylase (UDG) (Homo sapiens, UniProt P13051). Put plainly: co-crystal structure. The class given is binding.
In series [2] the target is human UDG (mitochondrial, 6xHis; XTAL Biostructures) (Homo sapiens, UniProt P13051-2 82-304). Put plainly: thermal shift.
human UDG (mitochondrial, 6xHis; XTAL Biostructures), sequence (P13051 91-313): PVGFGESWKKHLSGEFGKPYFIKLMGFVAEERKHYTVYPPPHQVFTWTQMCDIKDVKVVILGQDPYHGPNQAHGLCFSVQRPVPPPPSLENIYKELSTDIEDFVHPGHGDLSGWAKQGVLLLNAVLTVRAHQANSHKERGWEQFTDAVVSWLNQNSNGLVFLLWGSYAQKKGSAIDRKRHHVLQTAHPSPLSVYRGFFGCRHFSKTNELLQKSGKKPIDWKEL

uracil DNA-glycosylase (UDG), sequence (P13051 whole entry): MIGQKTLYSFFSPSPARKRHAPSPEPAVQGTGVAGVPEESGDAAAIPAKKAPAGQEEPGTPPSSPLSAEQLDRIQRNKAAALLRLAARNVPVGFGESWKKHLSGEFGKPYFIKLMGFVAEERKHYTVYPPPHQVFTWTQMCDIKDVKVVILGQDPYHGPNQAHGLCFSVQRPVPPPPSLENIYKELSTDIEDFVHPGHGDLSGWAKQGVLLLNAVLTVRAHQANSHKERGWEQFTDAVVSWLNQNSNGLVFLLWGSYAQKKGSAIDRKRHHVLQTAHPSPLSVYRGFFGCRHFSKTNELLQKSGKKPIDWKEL

One may read the Kd as the free concentration of one partner at which half of the binding sites on the other are occupied at equilibrium, for simple one-to-one binding. Low readings indicate tighter binding, high ones weaker binding. Consider `O=C(O)C1=CC(=C(c2ccc(O)c(C(=O)O)c2)c2ccc(O)c(C(=O)O)c2)C=CC1=O` [aurintricarboxylic acid], for which the Kd in series [1] was less than 700 nM. Regarding GCACUUAAGAAUUGCAAUUCUUAAGUGC (structured_DNA, U in place of T (deoxyuridine, nine U:A pairs stated)) [uracil DNA hairpin], the binding result in series [2] is reported as “binds”.

For the origin of these results see paper PMC8722130 (Progress in biophysics and molecular biology, 2021).
